Source: US7427686B2, “(3R, 4R)-trans-3, 4-diarylchroman derivatives and a method for the prevention and/or treatment of estrogen dependent diseases” (Counsel of Scientific and Industrial Research, priority 2003, dated 2008)
Where two headings read alike, the source gives them in different places.

Columns and labels:
adult female rats = test: Post-coital antifertility activity; format: in vivo, rat; conditions: for % Efficacy: oral
Method: Adult female rats are caged overnight with coeval males of proven fertility and their vaginal smears are checked on the following morning. The day of presence of spermatozoa in the vaginal smear is taken as day 1 of pregnancy. […] Animals of all the groups are autopsied on day 10 post-coitum and number and status of corpora lutea and implantation sites in each rat are recorded. The compounds of the present invention are considered active if there is complete absence of implantations in the uterus of all rats, in comparison to presence of normal implantations in the uterus of rats of vehicle control group.

estrogen receptors = target: T1, estrogen receptors (Rattus norvegicus, UniProt P06211); test: Relative binding affinity (RBA) to estrogen receptors, 3H-estradiol competition assay; conditions: rat uterine cytosol, 3H-E2, 18 hrs at 4° C.; relative to 17-beta-estradiol = 100
T1 construct: Aliquot of uterine cytosol (200 μl; 2 uteri per ml) prepared in TEA buffer; from tissue; host or cells: uterine cytosol of immature estradiol-primed 20-21 day old rats
T1 sequence (P06211 1-600): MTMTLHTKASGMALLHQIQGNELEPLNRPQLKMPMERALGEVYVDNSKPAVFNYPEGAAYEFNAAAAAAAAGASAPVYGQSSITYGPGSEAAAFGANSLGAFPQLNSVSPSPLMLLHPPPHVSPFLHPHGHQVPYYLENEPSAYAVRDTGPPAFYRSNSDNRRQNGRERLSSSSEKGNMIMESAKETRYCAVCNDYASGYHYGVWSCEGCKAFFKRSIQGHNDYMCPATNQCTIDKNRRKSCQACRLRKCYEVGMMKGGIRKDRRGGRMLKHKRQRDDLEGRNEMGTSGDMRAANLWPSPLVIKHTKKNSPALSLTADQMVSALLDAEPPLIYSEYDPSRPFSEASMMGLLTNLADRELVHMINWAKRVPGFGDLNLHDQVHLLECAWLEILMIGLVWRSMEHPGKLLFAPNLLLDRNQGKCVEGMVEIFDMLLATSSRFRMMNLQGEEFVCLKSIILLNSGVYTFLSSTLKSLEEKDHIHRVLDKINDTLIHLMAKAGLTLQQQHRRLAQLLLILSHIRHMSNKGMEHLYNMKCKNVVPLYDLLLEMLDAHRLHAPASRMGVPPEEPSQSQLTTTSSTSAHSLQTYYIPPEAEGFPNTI

[1] = test system: immature ovariectomized rats; test: Estrogen antagonistic activity (EE induced uterine weight gain); format: in vivo, rat; conditions: 3 days
Method: Twenty-one-day-old immature female rats are bilaterally ovariectomized under light ether anaesthesia and after post-operative rest for 7 days, are randomized into different treatment groups. Each rat receives the compounds of the invention and 0.02 mg/kg dose of 17-alfa-ethynylestradiol in 10% ethanol-distilled water once daily for 3 consecutive days on days 28-30 of age. A separate group of animals-receiving only 17-alfa-ethynylestradiol (0.02 mg/kg) in 10% ethanol-distilled water for similar duration are used for comparison. At autopsy on day 31 of age, vaginal smear of each rat is taken and uterus is carefully excised, gently blotted, weighed and fixed for histology and histomorphometry using image analysis. Inhibition in 17-alfa-ethynylestradiol-induced premature opening of vagina, cornification of vaginal epithelium, increase in uterine fresh weight, total uterine and endometrial area and uterine luminal epithelial cell height are taken as parameters for evaluation of estrogen antagonistic activity.

[2] = test system: immature ovariectomized rats; test: Estrogen agonistic activity (uterine weight and uterine morphometry); format: in vivo, rat; conditions: for Percent increase in uterine weight (percent of OVX + vehicle treatment group): 3 days
Method: Twenty-one-day-old immature female rats are bilaterally ovariectomized under light ether anaesthesia and, after post-operative rest for 7 days, are randomized into different treatment groups. Each rat receives the compound of the invention once daily for 3 consecutive days on days 28-30 of age. A separate group of animals receiving only the vehicle for similar duration serves as control. At autopsy 24 h after the last treatment on day 31 of age, vaginal smear of each rat is taken and uterus is carefully excised, gently blotted, weighed and fixed for histology and histomorphometry using image analysis. Premature opening of vagina, cornification of vaginal epithelium, increase in uterine fresh weight, total uterine and endometrial area and uterine luminal epithelial cell height are taken as parameters for evaluation of estrogen agonistic activity in comparison to rats of vehicle control group.
For image analysis in estrogen agonistic activity evaluation studies, paraffin sections (6 μm thick) of the uterus stained with haematoxylin and eosin were analysed microscopically. To determine changes in uterine tissue components, areas of whole uterus and endometrium and the thickness of uterine epithelium were measured using a computer-image analysis system (BioVis, Expert Vision, India). Briefly, microscopic images of uterus acquired through a CCD camera were loaded in to the image analysis program and spatially calibrated against a stage micrometer image taken at the same magnification. Using thresholding and line tools, the regions for measurements were selected and the area (mm^2) of whole uterine transection excluding the luminal space, the area (mm^2) of the endometrium only, and the thickness (μm) of luminal epithelial lining were measured. Luminal epithelial thickness data was the Average of measurements made at 6 randomly selected sites are taken as parameters for evaluation.

[3] = test system: PTH-induced resorption of 45Ca from chick fetal bones in culture; test: Antiosteoporosis (antiresorptive) activity in vitro, chick fetal bone assay; format: cell-based; conditions: for T/C ratio: 100 μM, inhibition in PTH-induced resorption of 45Ca
Method: Test solutions of the compounds of the present invention are prepared in appropriate solvents in concentration range of 5 millimolar to 400 millimolar, most preferably in concentrations of 20 millimolar. 5 μl of each concentration are used for evaluation of antiresorptive activity in vitro. In control experiments, 5 μl of appropriate solvent is used in lieu of test compound. Femur bones are isolated from chick embryos on day 11 post-ovulation. The adhering soft connective tissue is completely removed. Each femur bone is then placed in a drop of phosphate buffered saline (PBS) and is transferred to BGJb culture medium containing ^45CaCl2 and incubated for 2 h. Labeled femur bones are washed 2-3 times with PBS and transferred to BGJb medium containing parathyroid hormone and cultured for 96 h in the presence or absence of the compound of invention or the vehicle in BGJb medium. Contralateral femur of each fetus serves as corresponding control. Culture medium with the respective treatment in each well is changed after 48 h. On termination of the culture at 96 h, bones are transferred to 0.1 N HCl for 24 h. Radioactivity due to ^45Ca in the spent medium collected at 48 and 96 h of culture and HCl extract at 96 h of culture is quantified by Liquid Scintillation Spectrophotometer in 10 ml of the scintillation fluid. Bone resorbing activity is expressed as percentage of ^45Ca released into the culture medium and the effect of the compound of invention as percent of the corresponding contra-lateral control or T/C ratio as shown below: [formula] Appropriate solvents are selected from solvents like water, normal (physiological) saline, phosphate buffered saline, phosphate buffer, DMSO alone or in a suitable combinations thereof.

MCF-7 cells = test: cells; format: cell-based, human
Method: The procedure is based on the following methods: New colorimetric assay for anticancer drug screening, Skehan et al., J Natn Cancer Inst, 82,1107, 1990 and Feasibility of a high-flux anticancer drug screen using a diverse panel of cultured human tumor cell lines 83,757, 1991.
A fully confluent flask of MCF-7 cells in trypsinized and 10^4 cells/well are plated in a 96 welled flat bottomed plate in 200 μl Minimum Essential Medium (MEM), pH 7.4 and allowed to attach for 24 h at 37° C. in a humidified CO2 incubator. Subsequently, the compound of invention dissolved in DMSO or ethanol is added at a specified concentration and further incubated for 48 h as before. The cells are then fixed in 50 μl cold 50% TCA and incubated for 1 h at 4° C. The supernatant is discarded and the plate is washed five times with deionized water and air dried. 100 μl of 0.4% (w/v) Sulforhodamine B (SRB) in 1% acetic acid is added to each well and incubated at room temperature for 30 minutes. Unbound SRB is removed by five washes with chilled 1% acetic acid and the plate is air dried. 200 μl of unbuffered 10 mM Tris base is added to solublize the bound stain for 5 minutes at room temperature and O.D. is read at 560 nm in a plate reader. The graph is plotted between O.D. and concentration and LC50 is calculated with respect to tamoxifen, which is used as a positive control.

[4] = 0.025 mg/kg daily, days 1-5 post-coitum
[5] = 0.05 mg/kg daily, days 1-5 post-coitum
[6] = 0.1 mg/kg daily, days 1-7 post-coitum
[7] = 0.05 mg/kg daily with 0.02 mg/kg 17-alfa-ethynylestradiol
[8] = cultured MCF-7 cells, 48 h, read-out: LC50 (the source's name)

Q: `CCCCNC[C@@H](O)COc1ccc([C@@H]2c3ccc(OC)cc3OC(C)(C)[C@H]2c2ccccc2)cc1` (relative stereo) [Example number 2, 3R,4R-trans-2,2-dimethyl-3-phenyl-4-(4-[{2R)-(3-n-butylamino-2-hydroxy}propyloxy]-phenyl)-7-methoxychroman] was tested. Which “% Efficacy” value (adult female rats; [4]) did it give?
A: 67%

Q: And the “% Efficacy” value (adult female rats; [5])?
A: 100%

Q: What about the “% Efficacy” value (adult female rats; [6]) of the same compound?
A: 100%

Q: What about the “% Efficacy” value (adult female rats; 0.5 mg/kg, day 1 post-coitum) of the same compound?
A: 100%

Q: And the “% Efficacy” value (adult female rats; 1 mg/kg, day 1 post-coitum)?
A: 100%

Q: And the “MED (prevention of pregnancy)” value (adult female rats; rats, administered during the pre-implantation period)?
A: 0.05 mg/kg

Q: And the RBA (estrogen receptors)?
A: 5.45

Q: And the “Percent inhibition in EE induced uterine weight gain” value [1, 7]?
A: 09%

Q: What about the “Endometrium Epithelial cell height” value ([2]; 0.05 mg/kg daily) of the same compound?
A: 8.69 μm

Q: What about the “Endometrium Total area” value ([2]; 0.05 mg/kg daily) of the same compound?
A: 0.08 mm^2

Q: And the “Uterus Total area” value ([2]; 0.05 mg/kg daily)?
A: 0.175 mm^2

Q: And the “Percent increase in uterine weight (percent of OVX + vehicle treatment group)” value ([2]; 0.05 mg/kg daily)?
A: 38%

Q: What about the “estrogenic activity at the MED” value ([2]; at the MED (0.05 mg/kg)) of the same compound?
A: devoid of any estrogenic activity

Q: For `COc1ccc2c(c1)OC(C)(C)[C@@H](c1ccccc1)[C@@H]2c1ccc(OCC(O)CN2CCCC2)cc1` (relative stereo) [Example number 12, 3R,4R-Trans-2,2-dimethyl-3-phenyl-4-(4-(2-hydroxy-3-pyrrolidinopropyloxy)-phenyl)-7-methoxy chroman], which “% Efficacy” value (adult female rats; [5]) is on record?
A: 50%

Q: What about the “% Efficacy” value (adult female rats; [6]) of the same compound?
A: 100%

Q: And the T/C ratio [3]?
A: 0.77

Q: What about the “Percent inhibition in EE induced uterine weight gain” value ([1]; 0.1 mg/kg daily with 0.02 mg/kg 17-alfa-ethynylestradiol) of the same compound?
A: 38%

Q: And the “Endometrium Epithelial cell height” value ([2]; 0.1 mg/kg daily)?
A: 15.93 μm

Q: What about the “Endometrium Total area” value ([2]; 0.1 mg/kg daily) of the same compound?
A: 0.27 mm^2

Q: And the “Uterus Total area” value ([2]; 0.1 mg/kg daily)?
A: 0.56 mm^2

Q: What about the “Percent increase in uterine weight (percent of OVX + vehicle treatment group)” value ([2]; 0.10 mg/kg daily) of the same compound?
A: 120%

Q: What about the CC50 (MCF-7 cells; [8]) of the same compound?
A: 18.2 µM

Q: For `COc1ccc2c(c1)OC(C)(C)[C@@H](c1ccccc1)[C@@H]2c1ccc(OCC(O)CN2CCCCC2)cc1` (relative stereo) [Example number 13, 3R,4R-Trans-2,2-dimethyl-3-phenyl-4-(4-(2-hydroxy-3-piperidinopropyloxy)-phenyl)-7-methoxychroman], which CC50 (MCF-7 cells; [8]) is on record?
A: 17.8 µM

Q: With `O=C(c1ccc(OCCN2CCCCC2)cc1)c1c(-c2ccc(O)cc2)sc2cc(O)ccc12` [Raloxifene, reference compound] as the compound, how does the T/C ([3]; comparator, concentration not given) read?
A: 0.6

Q: With `CC/C(=C(\c1ccccc1)c1ccc(OCCN(C)C)cc1)c1ccccc1` [Tamoxifen, reference compound] as the compound, how does the CC50 (MCF-7 cells; Homo sapiens, MCF7, 48 h, read-out: LC50) read?
A: 14.2 µM

Q: What does the source list for `C#C[C@]1(O)CC[C@H]2[C@@H]3CCc4cc(O)ccc4[C@H]3CC[C@@]21C` [17-alfa-Ethynylestradiol, reference compound]?
A: Endometrium Epithelial cell height ([2]; 0.01 mg/kg daily): 33.65 μm; Endometrium Total area ([2]; 0.01 mg/kg daily): 0.57 mm^2; Uterus Total area ([2]; 0.01 mg/kg daily): 1.21 mm^2; Percent increase in uterine weight (percent of OVX + vehicle treatment group) ([2]; 0.01 mg/kg daily): 419%

Q: For `COc1ccc2c(c1)OC(C)(C)[C@@H](c1ccccc1)[C@@H]2c1ccc(OCC2CO2)cc1` (relative stereo) [Example number 10, 3R,4R-Trans-2,2-dimethyl-3-phenyl-4-(4-(2,3-epoxypropyloxy)-phenyl)-7-methoxychroman], which T/C ratio [3] is on record?
A: 0.79

Q: What does the source list for `CCCCNC[C@H](O)COc1ccc([C@@H]2c3ccc(OC)cc3OC(C)(C)[C@H]2c2ccccc2)cc1` (relative stereo) [Example number 7]?
A: % Efficacy (adult female rats; [4]): Inactive; % Efficacy (adult female rats; [5]): 100%; % Efficacy (adult female rats; 0.1 mg/kg daily, days 1-5 post-coitum): 100%; % Efficacy (adult female rats; 0.5 mg/kg, day 1 post-coitum): 50%; % Efficacy (adult female rats; 1 mg/kg, day 1 post-coitum): 100%; T/C ratio [3]: 0.41; Percent inhibition in EE induced uterine weight gain [1, 7]: 31%; Endometrium Epithelial cell height ([2]; 0.05 mg/kg daily): 6.17 μm; Endometrium Total area ([2]; 0.05 mg/kg daily): 0.13 mm^2; Uterus Total area ([2]; 0.05 mg/kg daily): 0.35 mm^2; Percent increase in uterine weight (percent of OVX + vehicle treatment group) ([2]; 0.05 mg/kg daily): 11%

Q: With `COc1ccc2c(c1)OC(C)(C)[C@@H](c1ccccc1)[C@@H]2c1ccc(OC[C@H]2CO2)cc1` (relative stereo) [Example number 1] as the compound, how does the T/C ratio [3] read?
A: 0.59
